Test results from patent US5108916A, “Process for stereoselectively hydrolyzing, transesterifying or esterifying with immobilized isozyme of lipase from Candida rugosa” (priority 1989, dated 1992).
Values joined by “and” are separate entries in the source; they are usually repeats but may differ in a detail not shown here. Equal values may be shown once. Read-outs that look alike come from different tables or passages of the source.

Legend:
[1] = Conversion of ketoprofen esters in organic solvent/oleic acid media; assay type: biochemical
Experimental: To optimize the organic solvent used in the presence of oleic acid a variety of organic solvents were used, along with a variety of ketoprofen esters. In this experiment, 50 mg of ketoprofen esters were weighed into flasks, along with 1 ml of oleic acid and 9 ml of an organic solvent. The flasks were capped and incubated at 35° C., 250 rpm, for 10-26 hours before stopping the reaction by first adding 4 ml CHCl3 to solubilize the substrates and products, then filtering through a 0.2 um Gelman Nylaflo filter. Samples were then diluted in methanol and analyzed by HPLC as in Example 18. The experiment was also performed using 200 ul of oleic acid and 10ml buffer, which was acidified, extracted with CHCl3 and analyzed by HPLC as above.
One ml of oleic acid was added, as was 9 ml of buffer (100 mM (NH4)H2 PO4, pH 5.5) or organic solvent. Flasks were placed into a 35° C. incubator and shaken at 250 rpm for 13 hours. Reaction was stopped by adding 5 ml CHCl3 to solubilize the organic material and filtering the solutions using 0.2 um Gelman Nylaflo membranes to remove the enzyme. Samples were analyzed on an ODS-3 RAC column using CH3 OH:10 mM (NH4)H2PO4 (60:40) as eluant, flow rate 4 ml/min, and detection at 254 nm. %ee was determined by the resolution of diastereomeric amides on the above HPLC system, as per Example 18.

[2] = tested on: CSC-2; test: Effect of additives and solvents on hydrolysis of ketoprofen monoglyceride by CSC-2; assay type: biochemical, Candida rugosa
Experimental: Hydrolysis of ketoprofen-monoglyceride (50mg) was carried out in various DMF-100mM (NH4)H2 PO4 buffer (pH 5.5) mixtures. In each flask a solution of ketoprofen monoglyceride (50mg) in DMF (200ul) was added. DMF was added followed by 100mM (NH4)H2 PO4 buffer. […] After 22 hours, 2%, 5%, and 10% DMF samples were acidified, extracted with CHCl3 (2×10ml) and analyzed. The other samples were analyzed directly as in Example 18. The acid produced decreases with increasing amount of DMF.
Small amounts of DMF were added to the reaction mixture to increase the solubility of KPG. In all cases 100mM ammonium phosphate buffer (pH 5.5) was used and 2% (v/v) detergents were added and the total volume was 10ml.
The buffer reaction (entry #2 in the table) contained enzyme in buffer (2 ml) and the buffer only (entry #1 in the table) reaction contained no enzyme.
The presence of a surfactant like Tween increases the solubility o lipophilic compounds in water. […] Tween 80 was added to make 1% and 2% solution (v/v). Bovine serum albumin (BSA) (10mg) was added to each of two flasks. A solution of 50mg of ketoprofen monoglyceride in 200ul DMF was added to each. After 20 hours at 250 rpm and 35° C. the reaction mixtures were acidified, extracted and analyzed by the usual HPLC procedure as in Example 18.
Various surfactants were used at 2% of the reaction volume to determine their effect on the enzymatic reaction involving the conversion of ketoprofen monoglyceride (KPG) to ketoprofen (KP). […] Flasks were covered with parafilm and incubated in a 35° C. water bath at 250 rpm, typically overnight. Reactions were stopped by acidification, extracted with CHCl3 (2×10 ml). The %acid and %ee were determined by the method of Example 18. It is to be noted that Hydrophile-Lipophile Balance (HLB) values have no apparent bearing on the ability of the surfactant to enhance the conversion of KPG to KP.
75 mg of KPG (in the absence of DMF) was individually weighed into 50 ml Erlenmeyer flasks. […] 9 ml of 100 mM (NH4)H2 PO4, pH 5.5 buffer was added, and the flasks were placed into a 35° C., 250 rpm water bath incubator for 20 hours. The reactions were acidified, extracted with CHCl3 and examined by HPLC as in Example 18. The %ee was determined as per Example 18.
Various amounts of oleic acid or its esters were added, and the reactions stopped at the times indicated, acidified, extracted with CHCl3 and analyzed as in Example 18.
An experiment was performed as in Example 41, but using 100, 200 and 500 ul of olive oil to determine if it would enhance the rate of conversion of KPG to KP. […] After 20 hours, all reactions were acidified, extracted with CHCl3 and analyzed by HPLC as in Example 18. The results are given below:
50 mg of KPG was weighed into Erlenmeyer flasks. […] Flasks were incubated at 35° C., 250 rpm for 23 hours. The reactions were stopped by acidification, extracted with CHCl3, and analyzed by HPLC as in Example 18. The additive is listed along with its percentage composition of glycerides of oleic acid.
To determine the problems associated with having oleic acid or oleate. esters in the reaction media, the following experiment was performed. […] Flasks were placed in a 35° C. incubator at 250 rpm, and the reactions were sampled by taking 200 ul aliquots at various time points. These aliquots were analyzed by HPLC (ODS-3 RAC column, CH3 OH: 10 mM (NH4)H2 PO4 (60:40) eluant, 4 ml/min, 254 nm detection) to determine the course of reaction. When approximately 40% acid was produced, the reactions were stopped by placing the flasks in the -70° C. freezer. Two extraction procedures were utilized to determine the best method of isolating S-Ketoprofen free of oleic acid. The first (listed as Extraction Procedure I in the following table) involved first making the solution basic (pH 10) with NaOH, then extracting with hexane, then CHCl3.

[3] = tested on: Lipase MY; test: Two phase Lipase MY hydrolysis of HPPA-Me in organic solvent/water mixtures; assay type: biochemical, Candida rugosa; conditions: 43 hr
Experimental: A. 75% organic solvent/25% aqueous buffer--Fifty milligrams of R,S-HPPA-Me was combined in 10 ml Scintillation vial with 7.5 ml of organic solvent, 2.5 ml of 50 mM phosphate buffer pH 6.0, and 5 mg Lipase MY. The reactions were placed on shaker and shaken for a period of 0-43 hours with samples being taken at various times.
B. 25% organic solvent/75% aqueous buffer--Fifty milligrams of R,S-HPPA-Me was combined, in 10 ml Scintillation vial with 2.5 ml of organic solvent, 7.5 ml 50mM phosphate buffer (pH 6.8), and 5 mg Lipase MY. The reactions were shaken for a period of 0-143 hours with samples being taken at various time points.
The data in Table 2 represents the % conversion and % R-HPPA produced using the indicated organic solvents in a two-phase system wherein 75% […] of the total vehicle (solvent) was water and the balance (25%) was organic solvents.

[4] = KPG 50 mg, 100 mg CSC-2 on silica (279-SD-1), 9 ml solvent (or buffer)/1 ml oleic acid, 13 hours
[5] = solvent/buffer 1:1 two phase, 26 hours
[6] = solvent/buffer 1:1 two phase, 26 hours, buffer = 100
[7] = Buffer 10 ml, OA 200 ul, enzyme not named in Example 55
[8] = Hexane 9 ml, OA 1 ml, 10-26 hours
[9] = Hexane 9 ml, OA 1 ml, * stopped at 10 Hr
[10] = Isooctane 9 ml, OA 1 ml, * stopped at 10 Hr

Row | SMILES | % Acid ([1]; KPEG 50 mg, as E212) [%] | % ee S-acid ([1]; KPEG, as E212) [%] | % Acid [1, 4] [%] | % ee S-acid ([1]; KPG, as E212) [%] | EE of S-acid [2, 5] [%] | Relative Rate [2, 6] | % ee ([1]; Buffer 10 ml, OA 200 ul) [%] | % Acid [1, 7] [%] | % Acid [1, 8] [%] | % Acid ([1]; Isooctane 9 ml, OA 1 ml) [%] | % ee [1, 10] [%] | also measured
1 | CC(Cl)(Cl)Cl [1,1,1-Trichloroethane] | 0 | 0 | 1 | 0 | 75 | 25 |  |  |  |  |  | 
2 | ClCC(Cl)Cl [1,1,2 trichloroethane] |  |  |  |  |  |  |  |  |  |  |  | % R ([3]; solvent 25%): 79%; Conversion (ester/acid) ([3]; solvent 25%): 29%; Relative Rate ([2]; solvent/buffer 1:1 two phase, 16 hour reactions): 0
3 | c1ccc2c(c1)CCCC2 [1,2,3,4-Tetrahydronapthalene] | 1 | 1 | 2 | 68 | 85 | 136 |  |  |  |  |  | 
4 | BrCCBr [1,2-dibromoethane] |  |  |  |  |  |  |  |  |  |  |  | % R ([3]; solvent 25%): 73%; Conversion (ester/acid) ([3]; solvent 25%): 33%; % R ([3]; solvent 75%): 57%; Conversion (ester/acid) ([3]; solvent 75%): 23%
5 | CC(C(=O)OCCCl)c1cccc(C(=O)c2ccccc2)c1 (stereo not shown) [2-Chloroethyl Ester, 2-chloroethyl ester of ketoprofen] |  |  |  |  |  |  | 96 | 18 | 7 | 18 | 97 | % Acid ([1]; CHCl3 9 ml, OA 1 ml): 2%; % ee ([1]; CHCl3 9 ml, OA 1 ml): 3%; % ee [1, 9]: 92%; % Acid ([1]; Toluene 9 ml, OA 1 ml): 1%; % ee ([1]; Toluene 9 ml, OA 1 ml): < 1%
6 | CC(C)O [2-propanol] |  |  |  |  |  |  |  |  |  |  |  | % R ([3]; solvent 25%): 0%; Conversion (ester/acid) ([3]; solvent 25%): 0%; % R ([3]; solvent 75%): 0%; Conversion (ester/acid) ([3]; solvent 75%): 0%
7 | C1=CCCCC1 [Cyclohexene] | 3 | 52 | 12 | 94 | 89 | 146 |  |  |  |  |  | 
8 | C1=CCCCCCC1 [Cyclooctene] | 16 | 92 | 38 | 98 | 95 | 387 |  |  |  |  |  | 
9 | CC(C(=O)OCCOCCO)c1cccc(C(=O)c2ccccc2)c1 (stereo not shown) [Diethylene glycol ester, Diethylene Glycol Ester of Ketoprofen] |  |  |  |  |  |  | 30 | 32 | 56 | 60 | 17 | % ee [1, 9]: 13%
10 | CC(C(=O)OCCO)c1cccc(C(=O)c2ccccc2)c1 (stereo not shown) [Ethylene Glycol Ester, ketoprofen ethylene glycol] |  |  |  |  |  |  | 98 | 21 | 29 | 47 | 98 | % Acid ([1]; CHCl3 9 ml, OA 1 ml): 0%; % ee [1, 9]: 95%; % Acid ([1]; Toluene 9 ml, OA 1 ml): 0%
11 | CCCCCC [Hexane] |  |  |  |  |  |  |  |  |  |  |  | % Acid [1]: 12% and 16%; % ee S-acid [1]: 94% and 87%; EE of S-acid [2]: 93%; Relative Rate ([2]; pH 5.5, 1560 min): 80
12 | CC(C)CC(C)(C)C [Isooctane] | 48 | 97 | 39 | 98 | 96 | 214 |  |  |  |  |  | 
13 | COC(=O)C(C)c1cccc(C(=O)c2ccccc2)c1 (stereo not shown) [Methyl ester] |  |  |  |  |  |  | 96 | 2 | 0.8 | 2 | 93 | % Acid ([1]; CHCl3 9 ml, OA 1 ml): 0%; % Acid ([1]; Toluene 9 ml, OA 1 ml): 0%
